Source: patent US8623898B2, “Glycine transporter inhibiting substances” (Taisho Pharmaceutical Co., Ltd., priority 2009, dated 2014)
Read-outs that look alike come from different tables or passages of the source.

How the values were obtained:
[1] = Membrane permeability experiment (PAMPA Evolution); assay type: in vitro ADME; conditions: artificial lipid GIT-0, pH 4.0, 5.0, 6.2 and 7.4, marker metoprolol
Description: In the development of pharmaceuticals, membrane permeability is an important factor to consider from the viewpoint of relationship with the bodily absorption of a medicament to be administered orally. Compounds having high membrane permeability are expected to feature satisfactory absorption by the intestinal tract (see Pharmaceutical Research (2002) Vol. 19, No. 7, 921-925.)
A membrane permeability test was conducted using PAMPA Evolution™ (pION INC.) in accordance with a modified version of the recommended protocol of pION INC. To be more specific, solutions of an assay compound (i.e., a DMSO solution of the compound as diluted by being added to system solutions that had been adjusted to prescribed pHs (4.0, 5.0, 6.2, and 7.4)) were prepared and added to the lower compartment (donor) of a sandwich plate having a lipid bilayer membrane formed of an artificial lipid (GIT-0). An acceptor sink buffer was added to the upper compartment (acceptor) and after the lapse of a prescribed period, the cumulative permeation of the compound was measured by performing UV spectroscopy on the solutions in the donor and acceptor, and the membrane permeability coefficient Pe (×10^−6 cm/sec) was calculated to assay the membrane permeability of the compound.

[2] = target: T1, human type 1 glycine transporter (GlyT1) (Homo sapiens, UniProt P48067); test: Glycine uptake inhibition experiment ([3H] glycine uptake in T98G cells); assay type: cell-based; conditions: [3H] glycine 250 nM, read-out: IC50 (glycine uptake inhibiting activity)
T1 construct: Used in the experiment were T98G cells (glioma cells) developing a human type 1 glycine transporter (GlyT1); endogenous in cells; host or cells: T98G human glioma cells
T1 sequence (P48067 1-706): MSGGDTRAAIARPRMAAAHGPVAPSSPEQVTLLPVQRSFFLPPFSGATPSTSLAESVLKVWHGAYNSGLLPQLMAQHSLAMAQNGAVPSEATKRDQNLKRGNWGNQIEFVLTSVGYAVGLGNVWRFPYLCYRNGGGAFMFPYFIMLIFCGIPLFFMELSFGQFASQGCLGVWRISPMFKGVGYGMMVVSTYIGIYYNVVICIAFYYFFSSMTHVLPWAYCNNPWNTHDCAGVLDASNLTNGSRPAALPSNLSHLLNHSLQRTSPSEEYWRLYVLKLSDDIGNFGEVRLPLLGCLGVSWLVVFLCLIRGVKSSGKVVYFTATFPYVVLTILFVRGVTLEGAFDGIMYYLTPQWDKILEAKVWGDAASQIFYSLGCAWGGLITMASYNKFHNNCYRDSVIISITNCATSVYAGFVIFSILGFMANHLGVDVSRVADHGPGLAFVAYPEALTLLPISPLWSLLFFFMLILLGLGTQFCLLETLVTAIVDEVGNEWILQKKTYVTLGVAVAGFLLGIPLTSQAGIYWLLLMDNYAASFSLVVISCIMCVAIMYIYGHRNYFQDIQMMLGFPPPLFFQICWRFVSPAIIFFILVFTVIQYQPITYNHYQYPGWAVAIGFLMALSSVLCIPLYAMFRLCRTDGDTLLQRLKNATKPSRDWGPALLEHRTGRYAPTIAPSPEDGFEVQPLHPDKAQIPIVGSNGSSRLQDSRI
Description: A glycine uptake inhibition experiment was conducted in accordance with the method described in Neuron, 8, 927-935, 1992. Used in the experiment were T98G cells (glioma cells) developing a human type 1 glycine transporter (GlyT1). The T98G cells were seeded in a 96-well plate at a density of 2.0×10^4 cells per well and cultured overnight in a CO2 incubator. The test substance was first dissolved in a 100% DMSO solution and then dissolved in a 10 mM HEPES buffer solution (pH 7.4) supplemented with 150 mM sodium chloride, 1 mM calcium chloride, 5 mM potassium chloride, 1 mM magnesium chloride, 10 mM glucose, and 0.2% bovine serum albumin. After removing the cell culture medium, the test substance was subjected to a 10-min pretreatment. Thereafter, the test substance and [^3H] glycine (final concentration: 250 nM) were added to the cells and reaction was performed at room temperature for 15 minutes. After the end of the reaction, the extracellular fluid was aspirated with a manifold to remove the excess marker glycine present outside of the cells; thereafter, the cells were lysed with an aqueous solution of 0.5 M sodium hydroxide. The glycine content in the cells was determined by measuring the radioactivity in the cell lysate with a liquid scintillation counter. With the amount of glycine uptake in the presence of 10 μM ALX5407 being referred to as the nonspecific uptake, the amount of specific uptake was calculated by subtracting the amount of nonspecific uptake from the total amount of uptake in the absence of 10 μM ALX5407. In addition, glycine uptake inhibiting activity (IC50) was calculated from an inhibition curve for the concentration of the test substance ranging from 10^−9 to 10^−5 M.

P-gp (Human MDR1) = target: T2, P-gp (Human MDR1) (Homo sapiens, UniProt P08183); test: Test for recognizability of P-gp substrate (LLC-GA5-COL 300 cells); assay type: in vitro ADME; conditions: 10 μM, criteria of Nature Reviews Drug Discovery (2010) 9, 215-236
T2 construct: expressed in transfected cells; host or cells: LLC-GA5-COL 300 (LLC-PK1 pig kidney epithelial cells expressing human MDR1)
T2 sequence (P08183 whole entry): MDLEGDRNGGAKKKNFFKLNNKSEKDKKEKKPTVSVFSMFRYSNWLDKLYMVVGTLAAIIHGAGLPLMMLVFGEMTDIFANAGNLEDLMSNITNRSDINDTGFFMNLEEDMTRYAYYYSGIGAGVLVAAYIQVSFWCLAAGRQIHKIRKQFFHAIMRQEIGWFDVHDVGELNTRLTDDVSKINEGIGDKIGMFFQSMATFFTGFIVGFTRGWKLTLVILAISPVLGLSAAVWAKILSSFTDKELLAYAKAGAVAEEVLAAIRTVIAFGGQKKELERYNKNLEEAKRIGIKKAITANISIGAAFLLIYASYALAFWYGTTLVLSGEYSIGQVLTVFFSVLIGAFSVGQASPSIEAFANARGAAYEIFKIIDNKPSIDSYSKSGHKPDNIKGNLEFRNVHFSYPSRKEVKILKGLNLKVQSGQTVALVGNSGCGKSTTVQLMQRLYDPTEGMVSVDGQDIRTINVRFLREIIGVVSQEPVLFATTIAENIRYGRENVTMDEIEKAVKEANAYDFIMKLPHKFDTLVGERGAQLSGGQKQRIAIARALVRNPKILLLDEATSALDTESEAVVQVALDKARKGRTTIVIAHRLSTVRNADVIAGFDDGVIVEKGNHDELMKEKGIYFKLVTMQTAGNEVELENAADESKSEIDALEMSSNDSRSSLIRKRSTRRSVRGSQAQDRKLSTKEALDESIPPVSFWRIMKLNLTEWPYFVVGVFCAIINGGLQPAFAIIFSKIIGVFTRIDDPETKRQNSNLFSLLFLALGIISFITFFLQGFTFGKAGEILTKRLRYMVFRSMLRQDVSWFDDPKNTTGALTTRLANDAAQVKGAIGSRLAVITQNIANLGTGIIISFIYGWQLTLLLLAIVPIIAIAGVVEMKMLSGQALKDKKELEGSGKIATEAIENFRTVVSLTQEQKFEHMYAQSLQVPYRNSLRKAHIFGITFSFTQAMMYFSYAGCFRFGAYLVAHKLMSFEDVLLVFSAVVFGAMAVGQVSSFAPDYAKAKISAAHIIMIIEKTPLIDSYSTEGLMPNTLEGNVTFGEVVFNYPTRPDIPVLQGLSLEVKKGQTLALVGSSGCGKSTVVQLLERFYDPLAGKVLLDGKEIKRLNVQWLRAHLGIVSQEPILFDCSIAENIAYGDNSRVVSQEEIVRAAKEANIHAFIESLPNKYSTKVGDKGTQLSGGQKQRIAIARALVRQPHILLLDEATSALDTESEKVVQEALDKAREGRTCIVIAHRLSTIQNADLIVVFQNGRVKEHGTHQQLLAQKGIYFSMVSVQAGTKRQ
From the text: In order that drugs acting on the central nervous system will develop their efficacy, their passage from the blood to the brain is generally important. While various efflux transporters are present at the blood-brain barrier to control this passage of drugs, P-glylcoprotein (P-gp) is a typical example and inhibits the passage to the brain of any drugs that serve as the substrate for P-gp. Therefore, in the development of pharmaceuticals, nonrecognizability of a candidate drug as the substrate for P-gp is the key to its passage to the brain.
A test for recognizability of P-gp substrate was performed in accordance with a modified version of the methods described in J. Pharmacol. Exp. Ther. (1992) Vol. 263, No. 2, 840-845 and J. Biol. Chem. (1992) Vol. 267, No. 34, 24248-24252. […] A solution of an assay compound (a DMSO solution of the compound as diluted with HBSS and adjusted to a final concentration of 10 μM) was added to the donor side of the LLC-GA5-COL 300 cells and a prescribed amount of HBSS was collected from the acceptor side at given time intervals and the concentration of the assay compound in the collected sample was measured by LC-MS/MS. […]

Row | IC50 ([2]; 15 min, room temperature) [nM] | IC50 [2] [nM] | Structure (SMILES) | membrane permeability coefficient Pe compared with metoprolol [1] | recognizability as P-gp substrate (efflux ratio basal→apical / apical→basal) (P-gp (Human MDR1))
1 | 21.4 | < 100 | Cn1cnc(C(=O)N(Cc2ccc(F)c(-c3ccc(F)c(Cl)c3)c2)C2CCOCC2)n1 [Compound 86] | higher Pe values than the high permeability marker compound metoprolol | –
2 | 22.4 | < 100 | Cn1cnc(C(=O)N(Cc2ccc(F)c(-c3ccc(OC(F)(F)F)cc3)c2)C2CCOCC2)n1 [Compound 89] | higher Pe values than the high permeability marker compound metoprolol | –
3 | 12.6 | < 100 | Cn1cnc(C(=O)N(Cc2ccc(F)c(-c3ccccc3)c2)C2CCOCC2)n1 [Compound 59] | higher Pe values than the high permeability marker compound metoprolol | –
4 | 28.9 | < 100 | CCOc1cccc(-c2cc(CN(C(=O)c3ncn(C)n3)C3CCOCC3)ccc2F)c1 [Compound 91] | higher Pe values than the high permeability marker compound metoprolol | –
5 | 8.2 | < 100 | Cn1cnc(C(=O)N(Cc2ccc(F)c(-c3ccc(F)cc3)c2)C2CCOCC2)c1 [Compound 103] | higher Pe values than the high permeability marker compound metoprolol | –
6 | 18.1 | < 100 | Cn1cnc(C(=O)N(Cc2ccc(F)c(-c3cccc(C(F)(F)F)c3)c2)C2CCOCC2)n1 [Compound 95] | higher Pe values than the high permeability marker compound metoprolol | –
7 | 30.6 | < 100 | Cn1cnc(C(=O)N(Cc2ccc(F)c(-c3ccc(Cl)cc3)c2)C2CCOCC2)n1 [Compound 60] | higher Pe values than the high permeability marker compound metoprolol | –
8 | 15.9 | < 100 | Cn1cnc(C(=O)N(Cc2ccc(F)c(-c3cccc(Cl)c3)c2)C2CCOCC2)n1 [Compound 61] | higher Pe values than the high permeability marker compound metoprolol | –
9 | 32 | < 100 | Cn1cnc(C(=O)N(Cc2ccc(F)c(-c3ccc(F)cc3)c2)C2CCOCC2)n1 [Compound 79] | higher Pe values than the high permeability marker compound metoprolol | –

The next lines start with the compound.

Row | Structure (SMILES) | IC50 ([2]; 15 min, room temperature) [nM] | IC50 [2] [nM] | membrane permeability coefficient Pe compared with metoprolol [1] | recognizability as P-gp substrate (efflux ratio basal→apical / apical→basal) (P-gp (Human MDR1))
10 | Cn1cnc(C(=O)N(Cc2cccc(-c3ccccc3)c2)C2CCOCC2)n1 [Compound 55] | 28.7 | < 100 | higher Pe values than the high permeability marker compound metoprolol | –
11 | Cn1cnc(C(=O)N(Cc2cccc(C(F)(F)F)c2)C2CCOCC2)c1 [Compound 16] | 9.7 | < 100 | higher Pe values than the high permeability marker compound metoprolol | –
12 | Cn1cnc(C(=O)N(Cc2ccc(F)c(C(F)(F)F)c2)C2CCOCC2)n1 [Compound 35] | 40.3 | < 100 | higher Pe values than the high permeability marker compound metoprolol | –
13 | Cn1cnc(C(=O)N(Cc2ccc(F)c(-c3cccc(CCO)c3)c2)C2CCOCC2)c1 [Compound 99] | 9 | < 100 | higher Pe values than the high permeability marker compound metoprolol | –
14 | Cn1cnc(C(=O)N(Cc2ccc(F)c(OC(F)(F)F)c2)C2CCOCC2)n1 [Compound 49] | 7.4 | < 100 | – | not recognizable as the substrate for P-gp
15 | Cn1cnc(C(=O)N(Cc2ccc(F)c(-c3cccc(OC(F)(F)F)c3)c2)C2CCOCC2)n1 [Compound 87] | 5.4 | < 100 | higher Pe values than the high permeability marker compound metoprolol | –
16 | Cn1cnc(C(=O)N(CCc2cccc(OC(F)(F)F)c2)C2CCOCC2)c1 [Compound 70] | 14.1 | < 100 | higher Pe values than the high permeability marker compound metoprolol | –
17 | Cn1cnc(C(=O)N(Cc2cccc(Cl)c2)C2CCOCC2)c1 [Compound 15] | 13.5 | < 100 | higher Pe values than the high permeability marker compound metoprolol | –
18 | O=C(c1cn(C2CC2)cn1)N(Cc1cccc(OC(F)(F)F)c1)C1CCOCC1 [Compound 12] | – | ≥ 1000 | higher Pe values than the high permeability marker compound metoprolol | –
19 | Cn1cnc(C(=O)N(C2CCOCC2)C(CO)Cc2cccc(OC(F)(F)F)c2)c1 (stereo not drawn) [Compound 109] | 31.7 | < 100 | higher Pe values than the high permeability marker compound metoprolol | –
20 | Cn1cnc(C(=O)N(Cc2ccc(F)c(Cl)c2)C2CCOCC2)n1 [Compound 34] | – | < 100 | higher Pe values than the high permeability marker compound metoprolol | –
21 | Cn1cnc(C(=O)N(Cc2ccc(F)c(-c3ccc(OC(F)(F)F)cc3)c2)C2CCOCC2)c1 [Compound 100] | 6 | < 100 | higher Pe values than the high permeability marker compound metoprolol | –
22 | Cn1cnc(C(=O)N(Cc2ccc(F)c(-c3cccc(Oc4ccccc4)c3)c2)C2CCOCC2)n1 [Compound 96] | – | < 100 | higher Pe values than the high permeability marker compound metoprolol | –
